The source of these data is PMC11193793 (Scientific Reports, 2024).

Molecules are shown by their SMILES. Like-named read-outs stand apart in the source and are kept apart here.

One test concerns the target T1, ovine COX-1 (Ovis aries, UniProt P05979).
T1 sequence (P05979 25-600): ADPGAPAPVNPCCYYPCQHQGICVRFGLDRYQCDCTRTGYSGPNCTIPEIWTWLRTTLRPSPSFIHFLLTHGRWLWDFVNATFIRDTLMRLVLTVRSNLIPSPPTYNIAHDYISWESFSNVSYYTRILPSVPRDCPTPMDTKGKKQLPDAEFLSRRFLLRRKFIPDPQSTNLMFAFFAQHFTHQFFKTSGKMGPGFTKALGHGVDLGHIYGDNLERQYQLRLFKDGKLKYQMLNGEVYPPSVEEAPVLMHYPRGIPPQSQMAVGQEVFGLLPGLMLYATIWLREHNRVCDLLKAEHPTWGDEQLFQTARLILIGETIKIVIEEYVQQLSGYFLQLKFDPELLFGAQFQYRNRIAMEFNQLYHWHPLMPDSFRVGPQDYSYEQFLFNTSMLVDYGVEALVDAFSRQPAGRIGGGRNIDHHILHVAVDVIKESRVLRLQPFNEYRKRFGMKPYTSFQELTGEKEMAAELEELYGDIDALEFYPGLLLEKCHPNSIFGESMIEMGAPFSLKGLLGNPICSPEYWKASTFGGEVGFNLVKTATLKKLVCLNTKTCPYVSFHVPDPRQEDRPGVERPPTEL
The experiment in a line: biochemical. As to the method: (§1) The full method is provided in the Supplementary materials.
(§2) Serial dilutions (100, 10, 1, 0.1, and 0.01 µg/mL) of the F. solani extract and the isolated metabolites were prepared and solvated in DMSO, then estimated for their abilities to inhibit the synthesis of prostaglandin using the kits for screening test for COX inhibitors (BioVision, Inc., USA, Mountain View, Catalog # K548-100 and Catalog # K547-100, for COX- […]
(§3) The investigational methodology was carried out following the provider’s recommendations. Arachidonic acid is being converted into prostaglandin (PGH2) by the cyclooxygenase enzyme (COX). During the reduction, the PGF2α formed in PGH2 via stannous chloride was evaluated via ELISA (enzyme-linked immunoassay). This bioassay is based on the competition among an antibody; PGspecific and a cholinesterase conjugate; PG-acetyl. The developed (antibody-PG) was combined with an acetylcholinesterase substrate included in Ellman's reagent. Each sample (20 µL) was used, (10 µL) heme, and (10 µL) enzyme, were combined to the reaction buffer solution (160 µL) formed of (2 mM phenol and 5 mM ethylenediamine tetra acetate (EDTA) in 0.1 M Tris-HCl, pH 8), followed by incubation of the mixture in a water bath at 37 °C for 10 min. Subsequently, starting the COX reaction was done by adding 10 µL of arachidonic acid, with a final concentration of […], to the reaction mixture.
(§4) Later, the COX reactions were ended after 2 min by adding saturated stannous chloride (30 µL), then inoculate for 5 min at room temperature. Afterwards, the PGF2α level was measured using ELISA. Subsequent move to a 96-well plate, inoculate the samples at room temperature for 18 h, then wash the plate to eliminate any residual reagents, followed by the addition of Ellman’s reagent (200 µL) which contains an acetylcholinesterase substrate, and incubation at room temperature for 60 to 90 min. A spectrophotometer with a microplate reader at 410 nm was used to measure the produced color at 410 […]
(§5) The data mean values from three measurements were used to calculate IC50 values. […]

In the next test the target is T2, recombinant human COX-2 (Homo sapiens, UniProt P35354).
T2 sequence (P35354 18-604): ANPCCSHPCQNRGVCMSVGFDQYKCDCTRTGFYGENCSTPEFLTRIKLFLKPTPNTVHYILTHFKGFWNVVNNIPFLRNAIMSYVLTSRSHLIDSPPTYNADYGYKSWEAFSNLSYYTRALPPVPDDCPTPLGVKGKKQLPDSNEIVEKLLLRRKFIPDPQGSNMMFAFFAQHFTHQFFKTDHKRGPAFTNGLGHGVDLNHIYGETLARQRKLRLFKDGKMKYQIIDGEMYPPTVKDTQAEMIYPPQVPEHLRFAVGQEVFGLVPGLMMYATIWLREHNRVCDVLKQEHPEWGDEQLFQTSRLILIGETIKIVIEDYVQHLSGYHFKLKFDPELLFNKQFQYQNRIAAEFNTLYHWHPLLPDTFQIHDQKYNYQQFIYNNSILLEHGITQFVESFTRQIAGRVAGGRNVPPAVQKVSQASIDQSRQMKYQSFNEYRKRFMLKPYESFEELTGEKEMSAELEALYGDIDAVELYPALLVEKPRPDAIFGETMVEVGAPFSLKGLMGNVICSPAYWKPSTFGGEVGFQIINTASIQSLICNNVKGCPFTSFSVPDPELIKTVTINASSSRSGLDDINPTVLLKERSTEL
The experiment in a line: biochemical. The note with it: for Selectivity index (SI): COX-2 selectivity from COX-1 and COX-2 IC50. Here is the method: as §1, §2, §3, §4, §5

The target of a further test is tyrosinase enzyme. The experiment in a line: Tyrosinase inhibitory assay (L-DOPA substrate, BioVision kit). Type of test: biochemical. As to conditions: mean ± SEM, triplicate. From the text: The anti-tyrosinase capacities of the F. solani extract together with the six isolated metabolites were investigated via evaluating their inhibitory activities against tyrosinase enzyme. The full method is provided in the Supplementary materials. […]
Tyrosinase inhibitory assay
The anti-tyrosinase capacities of the F. solani extract together with the six isolated metabolites were investigated via evaluating their inhibitory activities against tyrosinase enzyme using the kits for screening test of tyrosinase enzyme inhibition (BioVision, Inc., USA, Mountain View, Catalog # K575-100).
First, all samples were dissolved using DMSO (reference drug, EtOAc extract and the isolated compounds) preparing different concentrations. The assay of tyrosinase inhibition was done as previously reported 3. The mixture of assay composed of test solution (1900 μL) in (0.1 M) buffer phosphate pH 6.8 and freshly prepared enzyme solution (100 μL) which is composed of 15 U/mL in (0.1 M) buffer phosphate pH 6.8. The 30 min. of room temperature after pre-incubation, the reaction was started by adding substrate solution (1000 μL) which composed of L-DOPA (1.5 Mm) in buffer phosphate (0.1 M) pH 6.8. After 7 minutes of room temperature incubation, the mixture of the assay was analyzed for absorbance at […]
510 nm. […] The activity of tyrosinase inhibition
(The activity of the enzyme together with the tested samples). The mean values of the data from three measurements were used to calculate IC50 values.

Where [1] appears, read: mean ± SEM, triplicate, read-out: IC50 COX-1.
Setting [2] is: mean ± SEM, triplicate, read-out: IC50 COX-2.

With `O=Cc1ccc(O)cc1` [4-Hydroxybenzaldehyde (1), 4-hydroxybenzaldehyde], the half-inhibitory concentration (IC50) – broadly, the midpoint of a concentration-inhibition curve – on ovine COX-1 (setting [1]) was 25.7 ± 0.55 µM; on recombinant human COX-2 (setting [2]) it was 8.87 ± 0.26 µM; at tyrosinase enzyme (listed as 4-hydroxybenzaldehyde), more than 50 µM; on tyrosinase enzyme (listed as 4-hydroxybenzaldehyde (1)) it was 70.6 ± 1.49 µM. Besides, on recombinant human COX-2, the “Selectivity index (SI)” value is on record as 2.9.

In the case of `O=C(O)c1ccc(O)cc1` [4-Hydroxybenzoic acid (2), 4-hydroxybenzoic acid], the half-maximal inhibitory concentration (IC50) came to 44.5 ± 0.92 µM at ovine COX-1 (setting [1]), 28.4 ± 0.76 µM on recombinant human COX-2 (setting [2]) and 25.4 ± 0.53 µM on tyrosinase enzyme.

Consider `O=C(O)CCCCCCCC(=O)O` [Azelaic acid (4), azelaic acid], for which the IC50 at ovine COX-1 (setting [1]) was found to be 11.6 ± 0.29 µM; on recombinant human COX-2 (setting [2]), 2.21 ± 0.06 µM; against tyrosinase enzyme, 8.75 ± 0.18 µM. Besides, the “Selectivity index (SI)” value at recombinant human COX-2 was determined as 5.24.

As for `CCCCc1ccc(C(=O)O)nc1` [Fusaric acid (6), fusaric acid], the IC50 is 3.86 ± 0.05 µM against ovine COX-1, 4.81 ± 0.14 µM at recombinant human COX-2 (setting [2]) and 13.4 ± 0.27 µM against tyrosinase enzyme. The “Selectivity index (SI)” value on recombinant human COX-2 was determined as 0.8.

As to `O=C(O)CC(O)C(=O)O` (stereo not drawn) [Malic acid (5), malic acid], the IC50 is 51 ± 0.86 µM against ovine COX-1, 10.4 ± 0.3 µM at recombinant human COX-2 (setting [2]), 87.5 ± 1.84 µM against tyrosinase enzyme and more than 50 µM against tyrosinase enzyme (listed as malic acid).

`OCCc1ccc(O)cc1` [Tyrosol (3), tyrosol]: the results for the IC50 against ovine COX-1, on recombinant human COX-2 and on tyrosinase enzyme were 23.9 ± 0.38 µM, 5.31 ± 0.15 µM and 11.3 ± 0.24 µM, respectively. Further, the “Selectivity index (SI)” value at recombinant human COX-2 was found to be 4.49.
